Patent publication US20120302740A1, “VINCRISTINE IMMUNOASSAY” (SALADAX BIOMEDICAL INC., priority 2010, published 2012)
Where a name gives a salt, the structure may show the parent alone.

Tests used:
[1] = tested on: monoclonal antibody to vincristine 1D12.10; assay: Indirect competitive microtiter plate immunoassay (ELISA), monoclonal antibody 1D12.10; assay type: binding, mouse; details: relative to vincristine, vincristine [5]-BSA coated plates
Experimental: (§1) The ELISA method for measuring vincristine concentrations was performed in polystyrene microtiter plates (Nunc MaxiSorp F8 Immunomodules) optimized for protein binding and containing 96 wells per plate. Each well was coated with vincristine [5]-BSA conjugate (prepared as in Example 5) by adding 300 μl, of vincristine [5]-BSA conjugate at 10 μg/mL in 0.05M sodium carbonate, pH 9.6, and incubating for three hours at room temperature. The wells were washed with 0.05M sodium carbonate, pH 9.6 and then were blocked with 375 μL of 5% sucrose, 0.2% sodium caseinate solution for 30 minutes at room temperature. After removal of the blocking solution the plates were dried at 37° C. overnight.
(§2) This procedure is to find the dilution of antibody or anti-serum to be tested for displacement as in Example 9. The ELISA method for screening vincristine antibodies (produced in Example 6) was performed with the microtiter plates that were sensitized with vincristine-BSA conjugate prepared in Example 7. The antibody screening assay was performed by diluting the murine serum from test bleeds (as in Example 6a) containing polyclonal vincristine antibodies to 1:2,000, 1:6,000, 1:18,000 and 1:54,000 (volume/volume) in phosphate buffered saline containing 0.1% BSA and 0.01% thimerosal. […] (volume/volume) in phosphate buffered saline containing 0.1% BSA and 0.01% thimerosal. To each well of vincristine-BSA sensitized wells (prepared in Example 7)50 μL phosphate buffered saline containing 0.1% BSA and 0.01% thimerosal and 50 μL of diluted antibody were added and incubated for 10 minutes at room temperature with shaking. During this incubation antibody binds to the vincristine-BSA conjugate passively absorbed in the wells (Example 7). The wells of the plates were washed three times with 0.02 M TRIS, 0.9% NaCl, 0.5% Tween-80 and 0.001% thimerosal, pH 7.8 to remove any unbound antibody. […] Following the incubation for color development, 50 μL of stop solution (1.5% sodium fluoride in diH2O) was added to each well to stop the color development and after 10 seconds of shaking the absorbance was determined at 650 nm (Molecular Devices Plate Reader). The amount of antibody in a well was proportional to the absorbance measured and was expressed as the dilution (titer) resulting in an absorbance of 1.5. Titers were determined by graphing antibody dilution of the antibody measured (x-axis) vs. absorbance 650 nm (y-axis) and interpolating the titer at an absorbance of 1.5. The titer which produced absorbance of 1.5 determined the concentration (dilution) of antibody used in the indirect competitive microtiter plate assay described in Example 9. […]

[2] = tested on: polyclonal antibodies to vincristine, bleed G1M3; assay: Indirect competitive microtiter plate immunoassay (ELISA), polyclonal antiserum bleed G1M3; assay type: binding, mouse; details: relative to vincristine, vincristine [5]-BSA coated plates
Experimental: as §1
(§3) This procedure is to find the dilution of antibody or anti-serum to be tested for displacement as in Example 9. […] Following the incubation for color development, 50 μL of stop solution (1.5% sodium fluoride in diH2O) was added to each well to stop the color development and after 10 seconds of shaking the absorbance was determined at 650 nm (Molecular Devices Plate Reader). The amount of antibody in a well was proportional to the absorbance measured and was expressed as the dilution (titer) resulting in an absorbance of 1.5. Titers were determined by graphing antibody dilution of the antibody measured (x-axis) vs. absorbance 650 nm (y-axis) and interpolating the titer at an absorbance of 1.5. […]

[3] = tested on: polyclonal antibodies to vincristine, bleed G2M5; assay: Indirect competitive microtiter plate immunoassay (ELISA), polyclonal antiserum bleed G2M5; assay type: binding, mouse; details: relative to vincristine, vincristine [5]-BSA coated plates
Experimental: as §1, §3

[4] = tested on: polyclonal antibodies to vincristine, bleed G1M1; assay: Indirect competitive microtiter plate immunoassay (ELISA), polyclonal antiserum bleed G1M1; assay type: binding, mouse; details: relative to vincristine, vincristine [5]-BSA coated plates
Experimental: as §1, §3

[5] = tested on: monoclonal antibody to vincristine 8B6.23.23; assay: Indirect competitive microtiter plate immunoassay (ELISA), monoclonal antibody 8B6.23.23; assay type: binding, mouse; details: relative to vincristine, vincristine [5]-BSA coated plates
Experimental: as §1, §2

[6] = tested on: polyclonal antibodies to vincristine, bleed G2M1; assay: Indirect competitive microtiter plate immunoassay (ELISA), polyclonal antiserum bleed G2M1; assay type: binding, mouse; details: relative to vincristine, vincristine [5]-BSA coated plates
Experimental: as §1, §3

[7] = tested on: polyclonal antibodies to vincristine, bleed G1M4; assay: Indirect competitive microtiter plate immunoassay (ELISA), polyclonal antiserum bleed G1M4; assay type: binding, mouse; details: relative to vincristine, vincristine [5]-BSA coated plates
Experimental: as §1, §3

[8] = tested on: antibodies to vincristine; assay: Indirect competitive microtiter plate immunoassay (ELISA), pool of antibodies to vincristine; assay type: binding, mouse; details: for reactivity of the antibodies of this invention (in words): summary of Tables I and II
Experimental: as §1
This procedure is to find the dilution of antibody or anti-serum to be tested for displacement as in Example 9. The ELISA method for screening vincristine antibodies (produced in Example 6) was performed with the microtiter plates that were sensitized with vincristine-BSA conjugate prepared in Example 7. The antibody screening assay was performed by diluting the murine serum from test bleeds (as in Example 6a) containing polyclonal vincristine antibodies to 1:2,000, 1:6,000, 1:18,000 and 1:54,000 (volume/volume) in phosphate buffered saline containing 0.1% BSA and 0.01% thimerosal. […] (volume/volume) in phosphate buffered saline containing 0.1% BSA and 0.01% thimerosal. To each well of vincristine-BSA sensitized wells (prepared in Example 7)50 μL phosphate buffered saline containing 0.1% BSA and 0.01% thimerosal and 50 μL of diluted antibody were added and incubated for 10 minutes at room temperature with shaking. During this incubation antibody binds to the vincristine-BSA conjugate passively absorbed in the wells (Example 7). The wells of the plates were washed three times with 0.02 M TRIS, 0.9% NaCl, 0.5% Tween-80 and 0.001% thimerosal, pH 7.8 to remove any unbound antibody. […] After an incubation of 10 minutes at room temperature with shaking, during which the goat anti-mouse antibody-HRP enzyme conjugate binds to vincristine antibodies in the wells, the plates were again washed three times to remove unbound goat anti-mouse antibody-HRP enzyme conjugate. To develop a measurable color in the wells washing was followed by the addition of 100 μL of TMB (TMB Substrate, BioFx), the substrate for HRP, to develop color during a 10 minute incubation with shaking at room temperature. Following the incubation for color development, 50 μL of stop solution (1.5% sodium fluoride in diH2O) was added to each well to stop the color development and after 10 seconds of shaking the absorbance was determined at 650 nm (Molecular Devices Plate Reader). The amount of antibody in a well was proportional to the absorbance measured and was expressed as the dilution (titer) resulting in an absorbance of 1.5. Titers were determined by graphing antibody dilution of the antibody measured (x-axis) vs. absorbance 650 nm (y-axis) and interpolating the titer at an absorbance of 1.5. The titer which produced absorbance of 1.5 determined the concentration (dilution) of antibody used in the indirect competitive microtiter plate assay described in Example 9.
Indirect Competitive Microtiter Plate Immunoassay Procedure Determining IC50 and Cross-Reactivity for Antibodies to Vincristine
The ELISA method for determining IC50 values and cross-reactivity was performed with the microtiter plates that were sensitized with vincristine [5]-BSA conjugates as described in Example 7. […]

[9] = cited from earlier work
[10] = single one minute intravenous injection of 1-2 mg per m^2 body surface area

Row | Compound | Cross-reactivity of competitive immunoassay [1] [%] | Cross-reactivity of competitive immunoassay [2] [%] | Cross-reactivity of competitive immunoassay [3] [%] | Cross-reactivity of competitive immunoassay [4] [%] | Cross-reactivity of competitive immunoassay [5] [%] | Cross-reactivity of competitive immunoassay [6] [%] | Cross-reactivity of competitive immunoassay [7] [%] | percent cross-reactivities relative to vincristine ([8]; measured with this pool of antibodies) | reactivity of the antibodies of this invention (in words) [8] | elimination half-life [9, 10] [h] | time to distribution into tissue [9, 10] [min] | difference in total dose exposure (inter-/intra-patient variability) ([9]; Crom et al., 1994) | interpatient variability in clearance ([9]; Gidding et al., 1999, Groninger et al., 2002)
1 | CC[C@]1(O)C[C@@H]2CN(CCc3c([nH]c4ccccc34)[C@@](C(=O)OC)(c3cc4c(cc3OC)N(C)[C@H]3[C@@](O)(C(=O)OC)[C@H](OC(C)=O)[C@]5(CC)C=CCN6CC[C@]43[C@@H]65)C2)C1 [Vinblastine, vinblastine] | <0.1 | <3.9 | <2 | <0.9 | 0.3 | <3.4 | <4.1 | less than 5% | substantially non-cross-reactive |  |  |  | 
2 | CC[C@]1(O)C[C@H]2CN(CCc3c([nH]c4ccccc34)[C@@](C(=O)OC)(c3cc4c(cc3OC)N(C=O)[C@H]3[C@@](O)(C(=O)OC)[C@H](OC(C)=O)[C@]5(CC)C=CCN6CC[C@]43[C@@H]65)C2)C1 [Vincristine sulfate] |  |  |  |  |  |  |  |  |  | 19 to 155 | ≤ 10 |  | 
3 | [H][C@@]12C[N@@](CCc3c([nH]c4ccccc34)[C@@](C(=O)OC)(c3cc4c(cc3OC)N(C=O)[C@]3([H])[C@]45CC[N@@]4CC=C[C@@](CC)([C@@H](OC(C)=O)[C@]3(O)C(=O)OC)[C@]45[H])C1)C[C@](O)(CC)C2 [Vincristine, vincristine] | 100 | 100 | 100 | 100 | 100 | 100 | 100 |  | substantially selectively reactive |  |  | up to 40 fold | up to 25 fold
4 | CCC1=C[C@@H]2CN(C1)Cc1c([nH]c3ccccc13)[C@@](C(=O)OC)(c1cc3c(cc1OC)N(C)[C@H]1[C@@](O)(C(=O)OC)[C@H](OC(C)=O)[C@]4(CC)C=CCN5CC[C@]31[C@@H]54)C2 [Vinorelbine, vinorelbine] | <0.1 |  |  |  | 0.7 |  |  |  | substantially non-cross-reactive |  |  |  | 
5 | vindesine | <0.1 |  |  |  | <0.1 |  |  |  | substantially non-cross-reactive |  |  |  | 
